Structures can show the parent of a compound that is named as a salt. ± gives the standard error.

One assay deals with 621-102 (TSC2-deficient). The assay is described as follows: relative viability vs DMSO; higher = less cytotoxic. The note with it: serum: 10% FBS, 72 h.
In the next assay the test system is 621-103 (TSC2-rescued). The assay is described as above. As to conditions: serum: 10% FBS, 72 h.
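Further: immortalized renal angiomyolipoma cells stably carrying empty vector or TSC2, dosed in 384-well plates in DMEM, viability normalized to vehicle-treated wells within each plate.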

Turning to `CCN1CCN(C(=O)Cc2ccc(Nc3ncc(F)c(Nc4ccc(C(=O)Nc5ccccc5Cl)cc4)n3)cc2)CC1` [Aurora A Inhibitor I], the relative viability with 621-102 (TSC2-deficient) (0.0001 µM) came to 105.83 ± 0.089%; in the assay on 621-102 (TSC2-deficient) (0.001 µM), 113 ± 3.6%; with 621-102 (TSC2-deficient) (0.01 µM), 114 ± 3.2%; in the assay on 621-102 (TSC2-deficient) (0.1 µM) it was 105 ± 2.2%; in the assay with 621-102 (TSC2-deficient) (1 µM), 104 ± 1.4%; in the assay on 621-102 (TSC2-deficient) (10 µM) it was 0.786 ± 0.16%. For the same compound, the relative viability in the assay on 621-103 (TSC2-rescued) (0.0001 µM) was found to be 101 ± 0.28%; with 621-103 (TSC2-rescued) (0.001 µM) it was 100.7 ± 0.54%; in the assay with 621-103 (TSC2-rescued) (0.01 µM), 98.55 ± 0.77%; with 621-103 (TSC2-rescued) (0.1 µM), 99.54 ± 0.75%; in the assay on 621-103 (TSC2-rescued) (1 µM), 87.1 ± 2.3%; with 621-103 (TSC2-rescued) (10 µM), 0.915 ± 0.027%.
In the case of `CC(C)c1cc(C(C)C)c(CC(=O)NS(=O)(=O)Oc2c(C(C)C)cccc2C(C)C)c(C(C)C)c1` [Avasimibe (CI-1011)], the relative viability with 621-102 (TSC2-deficient) (0.0001 µM) amounted to 106.2 ± 1%; with 621-102 (TSC2-deficient) (0.001 µM), 97.5 ± 2.1%; in the assay on 621-102 (TSC2-deficient) (0.01 µM), 95.2 ± 2.4%; in the assay with 621-102 (TSC2-deficient) (0.1 µM) it was 99.6 ± 1.3%; in the assay on 621-102 (TSC2-deficient) (1 µM), 104.3 ± 0.53%; with 621-102 (TSC2-deficient) (10 µM), 106 ± 3.6%. For the same compound, the relative viability is 108 ± 8.1% in the assay with 621-103 (TSC2-rescued) (0.0001 µM); 99.44 ± 0.32% with 621-103 (TSC2-rescued) (0.001 µM); 105 ± 3.1% in the assay with 621-103 (TSC2-rescued) (0.01 µM); 101 ± 0.45% in the assay with 621-103 (TSC2-rescued) (0.1 µM); 97.89 ± 0.25% in the assay on 621-103 (TSC2-rescued) (1 µM); 97.8 ± 3.3% in the assay on 621-103 (TSC2-rescued) (10 µM).
Turning to `CNC(=O)c1ccccc1Sc1ccc2c(/C=C/c3ccccn3)n[nH]c2c1` [Axitinib], the relative viability in the assay with 621-102 (TSC2-deficient) (0.0001 µM) came out at 102 ± 3.9%; with 621-102 (TSC2-deficient) (0.001 µM), 104 ± 1.7%; in the assay with 621-102 (TSC2-deficient) (0.01 µM), 113 ± 0.88%; with 621-102 (TSC2-deficient) (0.1 µM), 109 ± 3.8%; in the assay with 621-102 (TSC2-deficient) (1 µM), 103.5 ± 0.7%; in the assay on 621-102 (TSC2-deficient) (10 µM), 55 ± 0.8%. Also, the relative viability in the assay on 621-103 (TSC2-rescued) (0.0001 µM) came to 86.7 ± 7.2%; in the assay with 621-103 (TSC2-rescued) (0.001 µM) it was 97.7 ± 3.4%; in the assay on 621-103 (TSC2-rescued) (0.01 µM) it was 100 ± 0.42%; with 621-103 (TSC2-rescued) (0.1 µM), 102 ± 1.1%; in the assay with 621-103 (TSC2-rescued) (1 µM) it was 98.7 ± 1.9%; in the assay with 621-103 (TSC2-rescued) (10 µM), 40.7 ± 1.5%.
For `CN1CCCC(n2nc(Cc3ccc(Cl)cc3)c3ccccc3c2=O)CC1` (stereo not given) [Azelastine HCl (Astelin)], the relative viability worked out at 111 ± 0.65% in the assay with 621-102 (TSC2-deficient) (0.0001 µM); 114 ± 4.5% with 621-102 (TSC2-deficient) (0.001 µM); 103 ± 4.9% with 621-102 (TSC2-deficient) (0.01 µM); 109 ± 1.6% in the assay with 621-102 (TSC2-deficient) (0.1 µM); 106.8 ± 0.17% in the assay on 621-102 (TSC2-deficient) (1 µM); 90.43 ± 0.82% in the assay with 621-102 (TSC2-deficient) (10 µM). Further, the relative viability amounted to 101 ± 3.8% in the assay with 621-103 (TSC2-rescued) (0.0001 µM); 92.3 ± 4.6% with 621-103 (TSC2-rescued) (0.001 µM); 98.15 ± 0.86% in the assay with 621-103 (TSC2-rescued) (0.01 µM); 100 ± 6.5% with 621-103 (TSC2-rescued) (0.1 µM); 102 ± 2.2% in the assay with 621-103 (TSC2-rescued) (1 µM); 68.28 ± 0.32% with 621-103 (TSC2-rescued) (10 µM).
Turning to `CNC(=O)c1cc(Oc2ccc(NC(=O)Nc3ccc(Cl)c(C(F)(F)F)c3)c(F)c2)ccn1` [BAY 73-4506 (Regorafenib)], the relative viability worked out at 109 ± 1.5% with 621-102 (TSC2-deficient) (0.0001 µM); 93.9 ± 5.3% in the assay with 621-102 (TSC2-deficient) (0.001 µM); 99.5 ± 0.71% in the assay with 621-102 (TSC2-deficient) (0.01 µM); 98.4 ± 2.8% with 621-102 (TSC2-deficient) (0.1 µM); 102 ± 1.4% in the assay on 621-102 (TSC2-deficient) (1 µM); 88.2 ± 1.8% in the assay on 621-102 (TSC2-deficient) (10 µM). The relative viability in the assay with 621-103 (TSC2-rescued) (0.0001 µM) stood at 98.01 ± 0.19%; in the assay on 621-103 (TSC2-rescued) (0.001 µM) it was 99.11 ± 0.79%; in the assay on 621-103 (TSC2-rescued) (0.01 µM) it was 99.9 ± 2.3%; in the assay with 621-103 (TSC2-rescued) (0.1 µM), 102 ± 1.6%; with 621-103 (TSC2-rescued) (1 µM) it was 100 ± 1.8%; with 621-103 (TSC2-rescued) (10 µM) it was 63.55 ± 0.47%.
Regarding `CC[C@@H]1C(=O)N(C)c2cnc(Nc3ccc(C(=O)N[C@H]4CC[C@H](N5CCN(CC6CC6)CC5)CC4)cc3OC)nc2N1C(C)C` [BI6727 (Volasertib)], the relative viability in the assay with 621-102 (TSC2-deficient) (0.0001 µM) worked out at 96.1 ± 4.3%; with 621-102 (TSC2-deficient) (0.001 µM), 72.9 ± 4.5%; in the assay with 621-102 (TSC2-deficient) (0.01 µM), 59.6 ± 3%; in the assay with 621-102 (TSC2-deficient) (0.1 µM), 42.4 ± 0.63%; in the assay on 621-102 (TSC2-deficient) (1 µM), 41.9 ± 0.7%; in the assay with 621-102 (TSC2-deficient) (10 µM), 1.64 ± 0.065%. Moreover, the relative viability in the assay with 621-103 (TSC2-rescued) (0.0001 µM) was found to be 76.3 ± 0.95%; with 621-103 (TSC2-rescued) (0.001 µM), 61.81 ± 0.53%; with 621-103 (TSC2-rescued) (0.01 µM), 53.6 ± 0.88%; in the assay with 621-103 (TSC2-rescued) (0.1 µM), 49 ± 2%; in the assay with 621-103 (TSC2-rescued) (1 µM), 44.3 ± 1.4%; in the assay with 621-103 (TSC2-rescued) (10 µM), 5.99 ± 0.27%.
As to `CC[C@@H]1C(=O)N(C)c2cnc(Nc3ccc(C(=O)NC4CCN(C)CC4)cc3OC)nc2N1C1CCCC1` [BI 2536], the relative viability in the assay on 621-102 (TSC2-deficient) (0.0001 µM) turned out to be 98.2 ± 3.1%; in the assay with 621-102 (TSC2-deficient) (0.001 µM), 80.3 ± 1.5%; with 621-102 (TSC2-deficient) (0.01 µM), 47.9 ± 1.7%; in the assay on 621-102 (TSC2-deficient) (0.1 µM), 44.6 ± 1.5%; in the assay on 621-102 (TSC2-deficient) (1 µM), 51.66 ± 0.21%; with 621-102 (TSC2-deficient) (10 µM), 29 ± 0.68%. For the same compound, the relative viability with 621-103 (TSC2-rescued) (0.0001 µM) was 98.6 ± 1.3%; with 621-103 (TSC2-rescued) (0.001 µM), 66.74 ± 0.51%; in the assay with 621-103 (TSC2-rescued) (0.01 µM), 53 ± 1.2%; with 621-103 (TSC2-rescued) (0.1 µM), 43.5 ± 1.5%; in the assay with 621-103 (TSC2-rescued) (1 µM), 50.6 ± 0.58%; in the assay with 621-103 (TSC2-rescued) (10 µM) it was 13 ± 0.48%.
For `COC(=O)c1ccc2c(C(=Nc3ccc(N(C)C(=O)CN4CCN(C)CC4)cc3)c3ccccc3)c(O)[nH]c2c1` [BIBF1120 (Vargatef)], the relative viability in the assay on 621-102 (TSC2-deficient) (0.0001 µM) was found to be 101 ± 2.6%; in the assay with 621-102 (TSC2-deficient) (0.001 µM) it was 111 ± 5.3%; in the assay on 621-102 (TSC2-deficient) (0.01 µM), 112 ± 1.5%; in the assay with 621-102 (TSC2-deficient) (0.1 µM) it was 108 ± 3.1%; with 621-102 (TSC2-deficient) (1 µM) it was 105 ± 1.7%; with 621-102 (TSC2-deficient) (10 µM) it was 95.8 ± 1.2%. In addition, the relative viability with 621-103 (TSC2-rescued) (0.0001 µM) stood at 86 ± 5.4%; with 621-103 (TSC2-rescued) (0.001 µM), 97.2 ± 3.1%; with 621-103 (TSC2-rescued) (0.01 µM), 103.3 ± 0.75%; in the assay with 621-103 (TSC2-rescued) (0.1 µM), 98.9 ± 3.9%; in the assay on 621-103 (TSC2-rescued) (1 µM) it was 96.9 ± 2.5%; with 621-103 (TSC2-rescued) (10 µM) it was 82 ± 2.1%.
Consider `C/C(=C\C(=O)Nc1ccccc1C(=O)O)c1ccc2ccccc2c1` [BIBR1532], for which the relative viability amounted to 93.51 ± 0.69% with 621-102 (TSC2-deficient) (0.0001 µM); 98.3 ± 0.93% with 621-102 (TSC2-deficient) (0.001 µM); 112 ± 5.2% in the assay on 621-102 (TSC2-deficient) (0.01 µM); 105.7 ± 1% in the assay with 621-102 (TSC2-deficient) (0.1 µM); 95.36 ± 0.93% in the assay with 621-102 (TSC2-deficient) (1 µM); 87.4 ± 2.7% in the assay with 621-102 (TSC2-deficient) (10 µM). Further, the relative viability in the assay on 621-103 (TSC2-rescued) (0.0001 µM) came out at 110 ± 3.1%; with 621-103 (TSC2-rescued) (0.001 µM), 98.3 ± 5%; in the assay on 621-103 (TSC2-rescued) (0.01 µM), 104.2 ± 0.53%; in the assay on 621-103 (TSC2-rescued) (0.1 µM), 103 ± 1.3%; in the assay on 621-103 (TSC2-rescued) (1 µM), 99.8 ± 0.11%; with 621-103 (TSC2-rescued) (10 µM) it was 96.4 ± 1.2%.
For the compound `Cn1c(CNc2ccc(C(=N)N)cc2)nc2cc(C(=O)N(CCC(=O)O)c3ccccn3)ccc21` [BIBR 953], the relative viability in the assay with 621-102 (TSC2-deficient) (0.0001 µM) is 64.4 ± 4.5%; in the assay on 621-102 (TSC2-deficient) (0.001 µM), 77.2 ± 5.6%; in the assay on 621-102 (TSC2-deficient) (0.01 µM), 90.2 ± 2.2%; in the assay on 621-102 (TSC2-deficient) (0.1 µM), 88.6 ± 4.5%; in the assay on 621-102 (TSC2-deficient) (1 µM), 82.7 ± 9.1%; in the assay on 621-102 (TSC2-deficient) (10 µM) it was 81 ± 4.6%. Also, the relative viability with 621-103 (TSC2-rescued) (0.0001 µM) came to 78 ± 9%; in the assay on 621-103 (TSC2-rescued) (0.001 µM), 76.5 ± 10%; in the assay with 621-103 (TSC2-rescued) (0.01 µM) it was 82.8 ± 11%; with 621-103 (TSC2-rescued) (0.1 µM) it was 94.1 ± 7.3%; with 621-103 (TSC2-rescued) (1 µM), 88.3 ± 6.7%; in the assay on 621-103 (TSC2-rescued) (10 µM) it was 91.3 ± 4.6%.
